Measurements as given in patent publication US4882328A, “Thiazetidine derivatives” (Nippon Shinyaku Co. Ltd., priority 1987, dated 1989).
Values after ≈ are worked out from the molar mass of the structure shown. Where a name gives a salt, the structure may show the parent alone.

Key:
P. aeruginosa E-2 [1] = experiment: Remedial Effect against Mouse Infectious Diseases, P. aeruginosa E-2; format: in vivo, ddy male mice infected with P. aeruginosa E-2; set-up: key: -: ineffective; +: somewhat poorer than enoxacin; ++: comparable to enoxacin; +++: extremely effective; settings: P. aeruginosa E-2, 7.5×10^4 CFU/mouse; single oral dose 2 h after inoculation; survival after one week, compared with enoxacin
Protocol: (§1) 2. Remedial Effect against Mouse Infectious Diseases:
(§2) E. coli KC-14 and P. aeruginosa E-2 each were suspended in 4% mucin, and 0.25 ml of each of the resulting suspensions was inoculated into the abdominal cavity of ddy male mice (weight: about 20 g, 4-week age, 10 mice for one group). The amount of the bacteria inoculated was 5.1×10^4 CFU/mouse for E. coli KC-14 and 7.5×10^4 CFU/mouse for P. aeruginosa E-2. Two hours after the inoculation of the bacteria, the compound to be tested was orally administered once, and the number of the animals living after one week was counted. The results obtained were compared with those using the control enoxacin.

S. aureus = experiment: Measurement of Minimal Growth Inhibitory Concentration (MIC), agar plate dilution, S. aureus; format: cell-based; settings: Staphylococcus aureus, 10^6 CFU/ml, 37° C., 18 hours, read-out: MIC (1)
Protocol: (§3) 1. Measurement of Minimal Growth Inhibitory Concentration (MIC)
(§4) MIC was measured by agar plate dilution assay method in accordance with the standard by Japan Chemical Therapeutics Association (refer to Journal of Japan Chemical Therapeutics Association, 29 (1), 76 to 79 (1981).
(§5) Briefly, a bacteria suspension as incubated in a bouillon medium for measurement of sensitivity, at 37° C. for 18 hours was diluted to 10^6 CFU/ml with the same medium. This was inoculated on an agar medium for measurement of sensitivity, which contained a compound to be tested, with a microplanter and incubated at 37° C. for 18 hours and then the MIC was measured. Enoxacin was used as a control.

P. aeruginosa E-2 [2] = experiment: Measurement of Minimal Growth Inhibitory Concentration (MIC), agar plate dilution, P. aeruginosa; format: cell-based; settings: Pseudomonas aeruginosa, E2, 10^6 CFU/ml, 37° C., 18 hours, read-out: MIC (3)
Protocol: as §3, §4, §5

E. coli KC-14 = experiment: Remedial Effect against Mouse Infectious Diseases, E. coli KC-14; format: in vivo, ddy male mice infected with E. coli KC-14; set-up: key: -: ineffective; +: somewhat poorer than enoxacin; ++: comparable to enoxacin; +++: extremely effective; settings: E. coli KC-14, 5.1×10^4 CFU/mouse; single oral dose 2 h after inoculation; survival after one week, compared with enoxacin
Protocol: as §1, §2

E. coli = experiment: Measurement of Minimal Growth Inhibitory Concentration (MIC), agar plate dilution, E. coli; format: cell-based; settings: Escherichia coli, 10^6 CFU/ml, 37° C., 18 hours, read-out: MIC (2)
Protocol: as §3, §4, §5

SMILES	Remedial Effect (3) (P. aeruginosa E-2 [1])	MIC (S. aureus)	MIC (P. aeruginosa E-2 [2])	Remedial Effect (2) (E. coli KC-14)	MIC (E. coli)
CC1Sc2c(C(=O)O)c(=O)c3cc(Cl)c(N4CCNCC4)nc3n21 (centres unmarked) [Example 21, 6-Chloro-1-methyl-4-oxo-7-(1-piperazinyl)-4H[1,3]thiazeto[3,2-a]-1,8-naphthyridine-3-carboxylic Acid Hydrochloride]	+	0.39 µg/mL	0.78 µg/mL	+	0.025 µg/mL
O=C(O)c1c2n(c3nc(N4CCNCC4)c(F)cc3c1=O)C(c1ccc(F)cc1)S2 (centres unmarked) [Example 35, 6-fluoro-1-(4-fluorophenyl)-7-piperazinyl-4-oxo-4H(1,3)thiazeto(3,2-a)-1,8-naphthylidine-3-carboxylic acid]		0.39 µg/mL (≈ 0.906 µM)	0.39 µg/mL (≈ 0.906 µM)		0.1 µg/mL (≈ 0.232 µM)
CC1Sc2c(C(=O)O)c(=O)c3cc(F)c(N4CCNCC4)nc3n21 (centres unmarked) [Example 12, 6-Fluoro-1-methyl-4-oxo-7-(1-piperazinyl)-4H[1,3]thiazeto[3,2-a]-1,8-naphthyridine-3-carboxylic Acid Hydrochloride]	+++	0.1 µg/mL	0.1 µg/mL	+++	0.0125 µg/mL
CCn1cc(C(=O)O)c(=O)c2cc(F)c(N3CCNCC3)nc21 [Enoxacin, enoxacin, reference compound]	++	0.78 µg/mL (≈ 2.44 µM)	0.78 µg/mL (≈ 2.44 µM)	++	0.2 µg/mL (≈ 0.624 µM)
CC1Sc2c(C(=O)O)c(=O)c3cc(Cl)c(N4CCN(C)CC4)nc3n21 (centres unmarked) [Example 25, 6-Chloro-1-methyl-7-(4-methyl-1-piperazinyl)-4-oxo-4H[1,3]thiazeto[3,2-a]-1,8-naphthyridine-3-carboxylic Acid Ethanesulfonate]	-	0.39 µg/mL	0.78 µg/mL	+	0.025 µg/mL
O=C(O)c1c2n(c3nc(N4CCNCC4)c(F)cc3c1=O)C(c1ccccc1)S2 (centres unmarked) [Example 34, 6-Fluoro-1-phenyl-7-piperazinyl-4-oxo-4H[1,3]thiazeto[3,2-a]-1,8-naphthylidine-3-carboxylic acid hydrochloride]		0.39 µg/mL	0.39 µg/mL		0.1 µg/mL
CC1Sc2c(C(=O)O)c(=O)c3cc(F)c(N4CCOCC4)nc3n21 (centres unmarked) [Example 18, 6-Fluoro-1-methyl-7-morpholino-4-oxo-4H[1,3]thiazeto[3,2-a]-1,8-naphthyridine-3-carboxylic Acid]	-	0.1 µg/mL (≈ 0.285 µM)	0.78 µg/mL (≈ 2.22 µM)	+	0.05 µg/mL (≈ 0.142 µM)
CN1CCN(c2nc3c(cc2F)c(=O)c(C(=O)O)c2n3CS2)CC1 [Example 3, 6-Fluoro-7-(4-methyl-1-piperazinyl)-4-oxo-4H[1,3]-thiazeto[3,2-a]-1,8-naphthyridine-3-carboxylic Acid Hydrochloride]	+++	0.39 µg/mL	0.39 µg/mL	+++	0.025 µg/mL
O=C(O)c1c2n(c3nc(N4CCNCC4)c(Cl)cc3c1=O)CS2 [Example 20, 6-Chloro-4-oxo-7-(1-piperazinyl)-4H[1,3]thiazeto[3,2-a]-1,8-naphthyridine-3-carboxylic Acid Hydrochloride]	-	0.78 µg/mL	0.78 µg/mL	+	0.05 µg/mL
CC1Sc2c(C(=O)O)c(=O)c3cnc(N4CCN(C)CC4)nc3n21 (centres unmarked) [Example 7, 1-Methyl-7-(4-methyl-1-piperazinyl)-4-oxo-4H[1,3]thiazeto[3',2'-1,2]pyrido[2,3-d]pyrimidine-3-carboxylic Acid]	-	1.56 µg/mL (≈ 4.49 µM)	1.56 µg/mL (≈ 4.49 µM)	++	0.1 µg/mL (≈ 0.288 µM)
O=C(O)c1c2n(c3nc(N4CCNCC4)c(F)cc3c1=O)CS2 [Example 2, 6-Fluoro-7-(1-piperazinyl)-4-oxo-4H[1,3]-thiazeto[3,2-a]-1,8-naphthyridine-3-carboxylic Acid Hydrochloride]	+	0.39 µg/mL	0.39 µg/mL	+	0.05 µg/mL
CC1Sc2c(C(=O)O)c(=O)c3cc(F)c(N4CCN(C)CC4)nc3n21 (centres unmarked) [Example 14, 6-Fluoro-1-methyl-7-(4-methyl-1-piperazinyl)-4-oxo-4H[1,3]thiazeto[3,2-a]-1,8-naphthyridine-3-carboxylic Acid]	+++	0.1 µg/mL (≈ 0.274 µM)	0.2 µg/mL (≈ 0.549 µM)	+++	0.0125 µg/mL (≈ 0.0343 µM)
